Assay results reported in US10287272B2, “Substituted indazole compounds as RORgammaT inhibitors and uses thereof” (Merck Sharp & Dohme Corp., priority 2015, dated 2019).

Legend:
[1] = system: BclxL gene expression in murine thymus; experiment: Murine thymic BclxL gene expression assay; format: in vivo, mouse; details: female C57BL/6 mice, oral 0.1-30 mg/kg, thymus collected 2 hours after dosing, qPCR; FIG. 3
Experimental: Animals were euthanized with carbon dioxide (CO2) at 2 hours after dosing, and thymi were collected and immediately placed on ice before processing.
Thymus tissue samples were mashed with syringe plungers in a 48-well, flat-bottom tissue culture plate. Cells were suspended in 1 mL phosphate buffered saline (PBS), and passed through a Falcon 70 μM cell strainer into 50-mL centrifuge tubes. A 200 μL aliquot of cells from each sample were transferred into a 96-well, round-bottom plate. The plate was centrifuged at 1200 rpm and 4° C., flicked to remove supernatant, and the cell pellets were frozen at −80° C. until further processing.
Initial further processing consisted of ribonucleic acid (RNA) isolation and complementary deoxyribonucleic acid (cDNA) synthesis.

RARβ = RARβ (Homo sapiens (Human), UniProt P10826); experiment: Nuclear hormone receptor selectivity assay (GAL4-NHR-LBD luciferase, HEK293); format: cell-based
Experimental: (§1) In the assay system used, an activated GAL4-nuclear hormone receptor (NHR) fusion construct binds to an upstream activation sequence (UAS) and drives a luciferase reporter gene. […]
(§2) HEK293 cells were transfected with GAL4-NHR-LBD construct (pcDNA3.1neo) and the pGL4.31 GAL4-luciferase reporter construct (Promega) and incubated overnight at 37° C. and 5% CO2. After 16-24 hours, cells were harvested and plated at 20 μL (10,000 cells)/well in tissue-culture treated 384 well plate. […] Next, plates are spun briefly and incubated overnight at 37° C. and 5% CO2. […] In agonist mode, test compound was incubated directly with the cells. For receptors that are not constitutively active, a known agonist is also tested as a positive control.
(§3) After 16-24 hours, luciferase activity was measured. Plates and luciferase reagent (e.g. One-Glo® or Dual Glo®; Promega, Madison, Wis.) were brought to room temperature. Next, a 25 μL aliquot of luciferase reagent was added to each well. Plates were spun down briefly and incubated at room temperature for 10 minutes. The luciferase signal was measured on an Envision plate reader (Perkin Elmer) set to the ultra-sensitive luminescence setting.

PPARβ = PPARβ (Homo sapiens (Human), UniProt Q03181); experiment: as above; format: cell-based
Experimental: as §1, §2, §3

LXRβ = LXRβ (Homo sapiens (Human), UniProt P55055); experiment: as above; format: cell-based
Experimental: as §1, §2, §3

TRβ = TRβ (Homo sapiens (Human), UniProt P10828); experiment: as above; format: cell-based
Experimental: as §1, §2, §3

RARγ = RARγ (Homo sapiens (Human), UniProt P13631); experiment: as above; format: cell-based
Experimental: as §1, §2, §3

RARα = RARα (Homo sapiens (Human), UniProt P10276); experiment: as above; format: cell-based
Experimental: as §1, §2, §3

TRα = TRα (Homo sapiens (Human), UniProt P10827); experiment: as above; format: cell-based
Experimental: as §1, §2, §3

RORα = RORα (Homo sapiens (Human), UniProt P35398); experiment: as above; format: cell-based; details: antagonist mode
Experimental: as §1, §2, §3

RXRα = RXRα (Homo sapiens (Human), UniProt P19793); experiment: as above; format: cell-based
Experimental: as §1, §2, §3

CAR = CAR (Homo sapiens (Human), UniProt Q14994); experiment: as above; format: cell-based
Experimental: as §1, §2, §3

VDR = VDR (Homo sapiens (Human), UniProt P11473); experiment: as above; format: cell-based
Experimental: as §1, §2, §3

FXR = FXR (Homo sapiens (Human), UniProt Q96RI1); experiment: as above; format: cell-based
Experimental: as §1, §2, §3

LXRα = LXRα (Homo sapiens (Human), UniProt Q13133); experiment: as above; format: cell-based
Experimental: as §1, §2, §3

PPARα = PPARα (Homo sapiens (Human), UniProt Q07869); experiment: as above; format: cell-based
Experimental: as §1, §2, §3

PXR = PXR (Homo sapiens (Human), UniProt O75469); experiment: as above; format: cell-based; details: agonist mode
Experimental: as §1, §2, §3

RORβ = RORβ (Homo sapiens (Human), UniProt Q92753); experiment: as above; format: cell-based; details: antagonist mode
Experimental: as §1, §2, §3

PPARγ = PPARγ (Homo sapiens (Human), UniProt P37231); experiment: as above; format: cell-based
Experimental: as §1, §2, §3

[2] = system: murine collagen-induced arthritis model; experiment: Murine collagen-induced arthritis model; format: in vivo, mouse; details: female DBA/1J mice, oral 3, 10 or 30 mg/kg twice daily; FIG. 4
Experimental: Female DBA/1J mice (Jackson Laboratories, 7-8 weeks old) were received and allowed to acclimate for about one week. On the day of immunization, an emulsion was freshly prepared by homogenizing equal volumes of Complete Freund's Adjuvant (CFA, Chondrex #7001) and a collagen type-2 solution (bovine source, Chondrex #20022) using a tissue homogenizer, on ice. A volume of 0.1 mL of this emulsion was injected subcutaneously into the base of the tail of each mouse, which was lightly anesthetized with isoflurane. Mice recovered from anesthesia were allowed food and water ad libitum.
Eighteen days after immunization, the mice were injected intraperitoneally with 40 μg of lipopolysaccaride (LPS, Sigma#L4005) in 0.2 mL saline, in order to help synchronize the disease progression in all animals. Seven days after LPS injection, the mice were assessed for knee joint swelling by measurement of each knee joint using digital calipers and computing total joint circumference. The total knee joint circumference of the 4 knee joints was then used to randomize mice into treatment groups of equal average circumference.
This dosing continued twice daily at 8- and 16-hour intervals for the duration of the study. As a positive control, one group of mice received 25 mg/kg Jak inhibitor (JAKi) tofacitinib once per day. Joints were measured 2-3 times per week.

[3] = antagonist mode, reference agonist at EC80

Chain of CAR (Q14994 109-352): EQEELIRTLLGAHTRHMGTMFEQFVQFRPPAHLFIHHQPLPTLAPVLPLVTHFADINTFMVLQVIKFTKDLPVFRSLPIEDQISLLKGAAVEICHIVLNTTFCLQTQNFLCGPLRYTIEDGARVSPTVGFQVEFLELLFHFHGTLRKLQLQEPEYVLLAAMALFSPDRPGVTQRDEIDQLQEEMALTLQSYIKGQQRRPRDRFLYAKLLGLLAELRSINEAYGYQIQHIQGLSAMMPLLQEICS
Chain of RARα (P10276 183-417, species assumed): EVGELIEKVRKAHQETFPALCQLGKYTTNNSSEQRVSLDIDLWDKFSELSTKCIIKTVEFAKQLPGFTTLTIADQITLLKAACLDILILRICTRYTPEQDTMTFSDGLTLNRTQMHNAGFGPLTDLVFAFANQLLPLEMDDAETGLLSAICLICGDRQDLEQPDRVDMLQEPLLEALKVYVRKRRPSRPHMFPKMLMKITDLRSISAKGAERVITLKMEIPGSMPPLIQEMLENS
Chain of TRα (P10827 other isoform, or with tags, fused parts or gaps isoform P10827-2): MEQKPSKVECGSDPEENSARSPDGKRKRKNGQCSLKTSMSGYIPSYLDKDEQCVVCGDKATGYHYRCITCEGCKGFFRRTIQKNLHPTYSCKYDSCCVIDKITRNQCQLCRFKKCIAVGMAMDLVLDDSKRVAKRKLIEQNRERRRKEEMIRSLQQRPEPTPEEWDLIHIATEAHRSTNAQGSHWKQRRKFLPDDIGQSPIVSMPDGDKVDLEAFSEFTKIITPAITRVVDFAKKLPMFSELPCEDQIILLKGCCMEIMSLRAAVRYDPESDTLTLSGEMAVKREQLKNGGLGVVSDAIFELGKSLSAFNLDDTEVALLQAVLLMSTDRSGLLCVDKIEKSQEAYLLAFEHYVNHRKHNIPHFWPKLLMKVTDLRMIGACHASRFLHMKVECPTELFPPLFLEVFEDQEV
Chain of LXRβ (P55055 222-460): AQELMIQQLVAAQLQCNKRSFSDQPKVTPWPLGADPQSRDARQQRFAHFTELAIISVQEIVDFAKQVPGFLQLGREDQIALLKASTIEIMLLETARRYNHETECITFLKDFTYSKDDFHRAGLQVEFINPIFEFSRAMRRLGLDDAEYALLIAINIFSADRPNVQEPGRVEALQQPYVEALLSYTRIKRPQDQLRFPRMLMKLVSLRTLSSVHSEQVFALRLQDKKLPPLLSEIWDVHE
Chain of RARβ (P10826 183-417, species assumed): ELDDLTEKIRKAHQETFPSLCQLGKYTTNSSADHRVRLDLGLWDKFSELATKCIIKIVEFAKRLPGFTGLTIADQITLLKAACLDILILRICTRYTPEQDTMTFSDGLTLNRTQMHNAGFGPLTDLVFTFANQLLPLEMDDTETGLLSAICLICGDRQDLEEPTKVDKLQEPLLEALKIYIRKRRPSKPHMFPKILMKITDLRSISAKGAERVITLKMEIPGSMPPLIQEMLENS
Chain of PPARγ (P37231 238-503, species assumed): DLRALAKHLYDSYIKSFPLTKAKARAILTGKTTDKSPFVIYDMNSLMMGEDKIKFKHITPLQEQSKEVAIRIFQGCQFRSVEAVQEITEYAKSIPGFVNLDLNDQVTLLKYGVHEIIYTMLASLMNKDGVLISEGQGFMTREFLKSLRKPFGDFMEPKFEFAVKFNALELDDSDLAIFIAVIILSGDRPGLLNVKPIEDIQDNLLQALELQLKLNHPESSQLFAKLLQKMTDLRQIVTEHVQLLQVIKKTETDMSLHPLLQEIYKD
Chain of RXRα (P19793 227-458): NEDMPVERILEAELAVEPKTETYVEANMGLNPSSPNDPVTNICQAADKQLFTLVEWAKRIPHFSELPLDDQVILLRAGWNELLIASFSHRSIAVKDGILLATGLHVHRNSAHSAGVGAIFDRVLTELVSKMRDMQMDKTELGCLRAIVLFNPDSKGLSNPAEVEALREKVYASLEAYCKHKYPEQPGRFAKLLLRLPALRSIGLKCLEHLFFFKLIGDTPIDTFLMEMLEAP
Chain of TRβ (P10828 217-461): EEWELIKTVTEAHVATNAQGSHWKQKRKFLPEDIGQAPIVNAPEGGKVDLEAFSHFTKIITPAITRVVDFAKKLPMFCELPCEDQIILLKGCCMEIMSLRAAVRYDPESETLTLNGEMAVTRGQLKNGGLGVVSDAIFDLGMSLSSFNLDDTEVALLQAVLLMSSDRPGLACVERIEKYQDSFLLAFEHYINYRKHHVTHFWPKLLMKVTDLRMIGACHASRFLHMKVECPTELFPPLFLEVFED
Chain of PPARβ (Q03181 211-439, species assumed): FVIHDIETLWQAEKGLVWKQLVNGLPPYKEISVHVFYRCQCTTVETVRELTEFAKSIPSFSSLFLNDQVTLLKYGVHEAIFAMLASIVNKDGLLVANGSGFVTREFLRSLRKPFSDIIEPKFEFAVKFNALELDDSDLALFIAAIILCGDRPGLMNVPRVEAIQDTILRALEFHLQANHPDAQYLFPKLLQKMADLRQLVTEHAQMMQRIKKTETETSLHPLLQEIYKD
Chain of LXRα (Q13133 209-447): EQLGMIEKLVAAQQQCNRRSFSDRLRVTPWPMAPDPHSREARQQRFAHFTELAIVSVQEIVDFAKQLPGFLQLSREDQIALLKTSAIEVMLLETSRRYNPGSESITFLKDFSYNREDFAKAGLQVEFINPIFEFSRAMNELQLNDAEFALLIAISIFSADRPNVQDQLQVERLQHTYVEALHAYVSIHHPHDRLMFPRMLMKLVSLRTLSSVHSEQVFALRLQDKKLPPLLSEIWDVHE
Chain of PPARα (Q07869 239-466, species assumed): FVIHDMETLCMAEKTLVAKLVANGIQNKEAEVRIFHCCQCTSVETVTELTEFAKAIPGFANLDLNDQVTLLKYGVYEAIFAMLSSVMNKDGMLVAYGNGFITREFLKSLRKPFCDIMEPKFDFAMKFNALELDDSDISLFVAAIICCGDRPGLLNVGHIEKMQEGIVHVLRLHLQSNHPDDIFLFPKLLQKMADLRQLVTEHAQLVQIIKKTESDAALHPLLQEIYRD
Chain of VDR (P11473 127-423, species assumed): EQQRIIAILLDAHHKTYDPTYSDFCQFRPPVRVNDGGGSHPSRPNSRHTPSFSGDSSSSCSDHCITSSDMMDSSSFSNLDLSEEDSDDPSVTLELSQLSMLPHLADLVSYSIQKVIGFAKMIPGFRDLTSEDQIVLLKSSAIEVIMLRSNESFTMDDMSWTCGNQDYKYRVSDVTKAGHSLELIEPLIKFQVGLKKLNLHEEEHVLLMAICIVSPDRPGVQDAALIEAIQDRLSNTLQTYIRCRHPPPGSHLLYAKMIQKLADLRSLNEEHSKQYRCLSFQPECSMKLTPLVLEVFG
Chain of RARγ (P13631 185-419, species assumed): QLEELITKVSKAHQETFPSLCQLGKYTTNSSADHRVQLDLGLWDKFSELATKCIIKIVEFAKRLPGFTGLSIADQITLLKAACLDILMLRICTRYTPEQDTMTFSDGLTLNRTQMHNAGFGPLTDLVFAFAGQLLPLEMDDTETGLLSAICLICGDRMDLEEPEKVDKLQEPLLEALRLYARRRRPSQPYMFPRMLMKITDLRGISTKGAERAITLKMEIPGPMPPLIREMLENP
Chain of FXR (Q96RI1 262-486, species assumed): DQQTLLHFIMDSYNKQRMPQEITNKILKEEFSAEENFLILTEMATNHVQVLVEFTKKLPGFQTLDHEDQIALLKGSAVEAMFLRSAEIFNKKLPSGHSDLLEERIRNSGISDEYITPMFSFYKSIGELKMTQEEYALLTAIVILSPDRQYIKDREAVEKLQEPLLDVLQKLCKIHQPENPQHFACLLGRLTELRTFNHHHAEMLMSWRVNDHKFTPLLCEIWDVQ
Chain of RORβ (Q92753 222-460): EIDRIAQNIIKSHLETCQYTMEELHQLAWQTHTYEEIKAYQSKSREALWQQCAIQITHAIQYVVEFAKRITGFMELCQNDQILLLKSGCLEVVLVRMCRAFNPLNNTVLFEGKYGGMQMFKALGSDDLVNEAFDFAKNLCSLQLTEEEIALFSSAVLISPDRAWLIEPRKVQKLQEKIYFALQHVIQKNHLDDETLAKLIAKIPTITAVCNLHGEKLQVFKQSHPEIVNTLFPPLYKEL
Chain of RORα (P35398 272-510): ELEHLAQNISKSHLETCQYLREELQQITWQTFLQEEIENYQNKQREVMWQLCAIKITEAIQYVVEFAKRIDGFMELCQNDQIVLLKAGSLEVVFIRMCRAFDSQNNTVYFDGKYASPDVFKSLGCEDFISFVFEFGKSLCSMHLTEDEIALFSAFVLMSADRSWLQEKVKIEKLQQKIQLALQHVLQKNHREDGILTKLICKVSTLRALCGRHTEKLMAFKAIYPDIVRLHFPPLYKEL
Chain of PXR (O75469 146-433, species assumed): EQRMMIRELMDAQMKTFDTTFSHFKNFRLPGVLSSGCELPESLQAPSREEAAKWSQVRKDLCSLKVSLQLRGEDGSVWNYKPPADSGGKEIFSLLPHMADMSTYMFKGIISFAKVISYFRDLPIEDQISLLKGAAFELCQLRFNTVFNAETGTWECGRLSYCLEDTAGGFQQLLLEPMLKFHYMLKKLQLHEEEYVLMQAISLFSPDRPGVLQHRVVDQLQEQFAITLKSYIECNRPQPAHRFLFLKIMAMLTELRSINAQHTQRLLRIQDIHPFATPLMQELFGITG

O=C(O)[C@@H]1CC=C(c2nn(C(=O)c3c(Cl)cccc3C3(C(F)(F)F)CC3)c3c2CC[C@@H](C(=O)N2CCC4(COC4)C2)C3)CC1 [Test Compound]
expression of BclxL in murine thymus [1]: dose-dependent decrease in the expression of BclxL in murine thymus | EC50 (RARβ; agonist mode): > 10 µM | IC50 (RARβ; [3]): > 10 µM | EC50 (PPARβ; agonist mode): > 10 µM | IC50 (PPARβ; [3]): > 10 µM | EC50 (LXRβ; agonist mode): > 10 µM | IC50 (LXRβ; [3]): > 10 µM | EC50 (TRβ; agonist mode): > 10 µM | IC50 (TRβ; [3]): > 10 µM | EC50 (RARγ; agonist mode): > 10 µM | IC50 (RARγ; [3]): > 10 µM | EC50 (RARα; agonist mode): > 10 µM | IC50 (RARα; [3]): > 10 µM | EC50 (TRα; agonist mode): > 10 µM | IC50 (TRα; [3]): 16 µM | IC50 (RORα): > 10 µM | EC50 (RXRα; agonist mode): > 10 µM | IC50 (RXRα; [3]): > 10 µM | EC50 (CAR; agonist mode): > 10 µM | IC50 (CAR; [3]): > 10 µM | EC50 (VDR; agonist mode): > 10 µM | IC50 (VDR; [3]): > 10 µM | EC50 (FXR; agonist mode): > 10 µM | IC50 (FXR; [3]): > 10 µM | EC50 (LXRα; agonist mode): > 10 µM | IC50 (LXRα; [3]): > 10 µM | EC50 (PPARα; agonist mode): > 10 µM | IC50 (PPARα; [3]): > 10 µM | EC50 (PXR): 8.2 µM | IC50 (RORβ): > 10 µM | IC50 (PPARγ; PPARγ, antagonist mode, reference agonist at EC80): > 10 µM | EC50 (PPARγ; read-out: Agonist Mode EC50): 5.1 µM | total joint circumference [2]: dose-dependent decrease in total joint circumference
